Data reported in patent US20250144164A1, “COMPOSITIONS, METHODS, AND MEDICAL COMPOSITIONS FOR TREATMENT OF AND MAINTAINING THE HEALTH OF THE LIVER” (priority 2023, published 2025).

Tested on: CCl4-induced hepatotoxicity model
Experiment: Carbon tetrachloride (CCl4)-induced hepatotoxicity model, serum ALT and survival
Type: in vivo, ICR/CD-1 mice
Settings: CCL4 25 μl/kg; dose 50 mg/kg

With `C=CCc1cc(OC)c2c(c1)OCO2` [Myristicin] the “% Change (inhibition in serum ALT)” value was 99.7%.
